Drawing on patent EP4559911A1, “NOVEL HETEROCYCLIC COMPOUND AND PHARMACEUTICAL COMPOSITION FOR INHIBITING AUTOTAXIN COMPRISING THE SAME” (Nextgen Bioscience Co., Ltd., priority 2022, dated 2024), this text covers inhibition for 26 molecules.

The structures appear in SMILES notation.

The test deals with human Autotaxin protein (Homo sapiens, UniProt Q13822). Put plainly: Evaluation of the inhibitory activity against human Autotaxin protein (18:1 LysoPC substrate, choline assay kit, absorbance at 570 nm). The following applies: compound at 500nM; 2 hours at 37 °C; % inhibition = (1 - absorbance test group / absorbance control group) X 100. The class given is biochemical. On the procedure:
Solutions of each compound synthesized (80 uM, 100% dimethyl sulfoxide) were sequentially diluted 5-fold with dimethyl sulfoxide to prepare 6 concentrations. Each concentration of the compound was diluted 2-fold with 1x test buffer (50 mM Tris-Cl (pH 8.0), 5 mM KCl, 1 mM CaCl2, 1 mM MgCl2, 140 mM NaCl, deionized water, 1 mg/mL BSA), and 1 uL (1.25% dimethyl sulfoxide) of this diluted mixture was dispensed into each well of a 96-well clear round-bottom plate. 9 uL of 1x test buffer was added, and 20 uL of 240 nM human autotaxin protein (buffer: 50 mM Tris-HCl, pH 8.0, with 150 mM sodium chloride and 20% glycerol) was added. 10 uL of sonicated 360 uM 18:1 LysoPC (diluted with 1x assay buffer) was added. The reaction was performed for 2 hours in a shaking incubator at 37 °C, and a secondary reaction mixture (choline assay kit, KA1662) (65 uL of 1x assay buffer: 1 uL of choline oxidase: 1 uL of dye probe) was prepared. 60 uL of the secondary reaction mixture was added to the plate where the reaction was performed, and incubated for 30 minutes in a shaker. The absorbance value was measured at a wavelength of 570 nm using a SpectraMax iD3 microplate reader. The percentage inhibition activity value (% inhibition) was calculated by the formula: (1 - absorbance value test group / absorbance value control group) X 100.

A word on the inhibition: it is the relative decrease from the control value, in per cent. High values mean a response far below the control, low ones a response near the control. `c1ccc2c(c1)CC(Nc1ncc(-c3nnc(N4CCC(c5c[nH]nn5)C4)o3)cn1)C2` (centres unmarked) [Example 1, 5-(5-(3-(1H-1,2,3-triazol-4-yl)pyrrolidin-1-yl)-1,3,4-oxadiazol-2-yl)-N-(2,3-dihydro-1H-inden-2-yl)pyrimidin-2-amine] displayed an inhibition at 0.5 µM of 98%.
Then `CC(C)(C)C(=O)OCn1cc(C2CCN(c3nnc(-c4cnc(NC5Cc6cc(F)c(F)cc6C5)nc4)o3)C2)nn1` (centres unmarked) [Example 2, (4-(1-(5-(2-((5,6-difluoro-2,3-dihydro-1H-inden-2-yl)amino)pyrimidin-5-yl)-1,3,4-oxadiazol-2-yl)pyrrolidin-3-yl)-1H-1,2,3-triazol-1-yl)methyl pivalate], with 3%; and `Fc1cc2c(cc1F)CC(Nc1ncc(-c3nnc(N4CCC(c5c[nH]nn5)C4)o3)cn1)C2` (centres unmarked) [Example 3, 5-(5-(3-(1H-1,2,3-triazol-4-yl)pyrrolidin-1-yl)-1,3,4-oxadiazol-2-yl)-N-(5,6-difluoro-2,3-dihydro-1H-inden-2-yl)pyrimidin-2-amine], with 100%.
Under `CC(C)(C)C(=O)OCn1cc(C2CCN(c3nnc(-c4cnc(NC5Cc6cccnc6C5)nc4)o3)C2)nn1` (centres unmarked) [Example 4, (4-(1-(5-(2-((6,7-dihydro-5H-cyclopenta[b]pyridin-6-yl)amino)pyrimidin-5-yl)-1,3,4-oxadiazol-2-yl)pyrrolidin-3-yl)-1H-1,2,3-triazol-1-yl)methyl pivalate] stands 1%; under `CC(C)(C)C(=O)OCn1cc(C2CCN(c3nnc(-c4cnc(NCc5ccc6c(c5)OCO6)nc4)o3)C2)nn1` (centres unmarked) [Example 5, (4-(1-(5-(2-((benzo[d][1,3]dioxol-5-ylmethyl)amino)pyrimidin-5-yl)-1,3,4-oxadiazol-2-yl)pyrrolidin-3-yl)-1H-1,2,3-triazol-1-yl)methyl pivalate], 7.6%.
Under `c1cc2c(cc1CNc1ncc(-c3nnc(N4CCC(c5c[nH]nn5)C4)o3)cn1)OCO2` (centres unmarked) [Example 6, 5-(5-(3-(1H-1,2,3-triazol-4-yl)pyrrolidin-1-yl)-1,3,4-oxadiazol-2-yl)-N-(benzo[d][1,3]dioxol-5-ylmethyl)pyrimidin-2-amine] stands 30.4%.
Take `c1cnc2c(n1)CC(Nc1ncc(-c3nnc(N4CCC(c5c[nH]nn5)C4)o3)cn1)C2` (centres unmarked) [Example 7, N-(5-(5-(3-(1H-1,2,3-triazol-4-yl)pyrrolidin-1-yl)-1,3,4-oxadiazol-2-yl)pyrimidin-2-yl)-6,7-dihydro-5H-cyclopenta[b]pyrazin-6-amine]: the inhibition at 0.5 µM was found to be 17%.
Then `c1cnc2c(c1)CC(Nc1ncc(-c3nnc(N4CCC(c5c[nH]nn5)C4)o3)cn1)C2` (centres unmarked) [Example 8, N-(5-(5-(3-(1H-1,2,3-triazol-4-yl)pyrrolidin-1-yl)-1,3,4-oxadiazol-2-yl)pyrimidin-2-yl)-6,7-dihydro-5H-cyclopenta[b]pyridin-6-amine], with 49.5%; and `O=C(/C=C/c1cnc(NC2Cc3cc(F)c(F)cc3C2)nc1)N1CCC(c2c[nH]nn2)C1` (centres unmarked) [Example 9, (E)-1-(3-(1H-1,2,3-triazol-4-yl)pyrrolidin-1-yl)-3-(2-((5,6-difluoro-2,3-dihydro-1H-inden-2-yl)amino)pyrimidin-5-yl)prop-2-en-1-one], with 94.2%.
Under `O=C(CCc1cnc(NC2Cc3cc(F)c(F)cc3C2)nc1)N1CCC(c2c[nH]nn2)C1` (centres unmarked) [Example 10, 1-(3-(1H-1,2,3-triazol-4-yl)pyrrolidin-1-yl)-3-(2-((5,6-difluoro-2,3-dihydro-1H-inden-2-yl)amino)pyrimidin-5-yl)propan-1-one] stands 18.6%; under `Clc1cc(Cl)cc(CCNc2ncc(-c3nnc(N4CCC(c5c[nH]nn5)C4)o3)cn2)c1` (centres unmarked) [Example 11, 5-(5-(3-(1H-1,2,3-triazol-4-yl)pyrrolidin-1-yl)-1,3,4-oxadiazol-2-yl)-N-(3,5-dichlorophenethyl)pyrimidin-2-amine], 41.6%; under `COc1ccc2c(c1)CC(Nc1ncc(-c3nnc(N4CCC(c5cn(COC(=O)C(C)(C)C)nn5)C4)o3)cn1)C2` (centres unmarked) [Example 12, (4-(1-(5-(2-((5-methoxy-2,3-dihydro-1H-inden-2-yl)amino)pyrimidin-5-yl)-1,3,4-oxadiazol-2-yl)pyrrolidin-3-yl)-1H-1,2,3-triazol-1-yl)methyl pivalate], 4.1%.
Then `COc1ccc2c(c1)CC(Nc1ncc(-c3nnc(N4CCC(c5c[nH]nn5)C4)o3)cn1)C2` (centres unmarked) [Example 13, 5-(5-(3-(1H-1,2,3-triazol-4-yl)pyrrolidin-1-yl)-1,3,4-oxadiazol-2-yl)-N-(5-methoxy-2,3-dihydro-1H-inden-2-yl)pyrimidin-2-amine], with 96.8%; and `Fc1cc2c(cc1F)CC(Nc1cnc(-c3nnc(N4CCC(c5c[nH]nn5)C4)o3)cn1)C2` (centres unmarked) [Example 14, 5-(5-(3-(1H-1,2,3-triazol-4-yl)pyrrolidin-1-yl)-1,3,4-oxadiazol-2-yl)-N-(5,6-difluoro-2,3-dihydro-1H-inden-2-yl)pyrazin-2-amine], with 23.3%; and `COC(=O)C1CCN(c2nnc(-c3cnc(NC4Cc5cc(F)c(F)cc5C4)nc3)o2)C1` (centres unmarked) [Example 15, methyl 1-(5-(2-((5,6-difluoro-2,3-dihydro-1H-inden-2-yl)amino)pyrimidin-5-yl)-1,3,4-oxadiazol-2-yl)pyrrolidine-3-carboxylate], with 9.5%.
For the molecule `Cc1nc(NC2Cc3cc(F)c(F)cc3C2)ncc1-c1nnc(N2CCC(c3c[nH]nn3)C2)o1` (centres unmarked) [Example 16, 5-(5-(3-(1H-1,2,3-triazol-4-yl)pyrrolidin-1-yl)-1,3,4-oxadiazol-2-yl)-N-(5,6-difluoro-2,3-dihydro-1H-inden-2-yl)-4-methylpyrimidin-2-amine], at 0.5 µM the inhibition was 88.1%.
Under `Fc1cc2c(cc1F)CC(Nc1ncc(C3CC(N4CCC(c5c[nH]nn5)C4)=NO3)cn1)C2` (centres unmarked) [Example 17, 5-(3-(3-(1H-1,2,3-triazol-4-yl)pyrrolidin-1-yl)-4,5-dihydroisoxazol-5-yl)-N-(5,6-difluoro-2,3-dihydro-1H-inden-2-yl)pyrimidin-2-amine] stands 39.5%; under `Fc1cc2c(cc1F)CC(Nc1ncc(-c3cc(N4CCC(c5c[nH]nn5)C4)no3)cn1)C2` (centres unmarked) [Example 18, 5-(3-(3-(1H-1,2,3-triazol-4-yl)pyrrolidin-1-yl)isoxazol-5-yl)-N-(5,6-difluoro-2,3-dihydro-1H-inden-2-yl)pyrimidin-2-amine], 95.3%; under `Brc1ccc2c(c1)CC(Nc1ncc(-c3nnc(N4CCC(c5c[nH]nn5)C4)o3)cn1)C2` (centres unmarked) [Example 19, 5-(5-(3-(1H-1,2,3-triazol-4-yl)pyrrolidin-1-yl)-1,3,4-oxadiazol-2-yl)-N-(5-bromo-2,3-dihydro-1H-inden-2-yl)pyrimidin-2-amine], 99.7%.
Then `O=C(/C=C/c1cnc(NC2Cc3ccccc3C2)nc1)N1CCC(c2c[nH]nn2)C1` (centres unmarked) [Example 20, (E)-1-(3-(1H-1,2,3-triazol-4-yl)pyrrolidin-1-yl)-3-(2-((2,3-dihydro-1H-inden-2-yl)amino)pyrimidin-5-yl)prop-2-en-1-one], with 92.4%.
Under `Fc1cc(F)cc(CNc2ncc(-c3nnc(N4CCC(c5c[nH]nn5)C4)o3)cn2)c1` (centres unmarked) [Example 21, 5-(5-(3-(1H-1,2,3-triazol-4-yl)pyrrolidin-1-yl)-1,3,4-oxadiazol-2-yl)-N-(3,5-difluorobenzyl)pyrimidin-2-amine] stands 72.5%.
As for `O=C(O)C1CCN(c2nnc(-c3cnc(NC4Cc5cc(F)c(F)cc5C4)nc3)o2)C1` (centres unmarked) [Example 22, 1-(5-(2-((5,6-difluoro-2,3-dihydro-1H-inden-2-yl)amino)pyrimidin-5-yl)-1,3,4-oxadiazol-2-yl)pyrrolidine-3-carboxylic acid], testing at 0.5 µM gave an inhibition of 3.6%.
Under `O=c1[nH]nc(C2CCN(c3nnc(-c4cnc(NC5Cc6cc(F)c(F)cc6C5)nc4)o3)C2)o1` (centres unmarked) [Example 23, 5-(1-(5-(2-((5,6-difluoro-2,3-dihydro-1H-inden-2-yl)amino)pyrimidin-5-yl)-1,3,4-oxadiazol-2-yl)pyrrolidin-3-yl)-1,3,4-oxadiazol-2(3H)-one] stands 91.6%; under `COC(=O)CC1CCN(c2nnc(-c3cnc(NC4Cc5cc(F)c(F)cc5C4)nc3)o2)C1` (centres unmarked) [Example 24, methyl 2-(1-(5-(2-((5,6-difluoro-2,3-dihydro-1H-inden-2-yl)amino)pyrimidin-5-yl)-1,3,4-oxadiazol-2-yl)pyrrolidin-3-yl)acetate], 1%.
Under `O=C(O)CC1CCN(c2nnc(-c3cnc(NC4Cc5cc(F)c(F)cc5C4)nc3)o2)C1` (centres unmarked) [Example 25, 2-(1-(5-(2-((5,6-difluoro-2,3-dihydro-1H-inden-2-yl)amino)pyrimidin-5-yl)-1,3,4-oxadiazol-2-yl)pyrrolidin-3-yl)acetic acid] stands 1.8%; under `OC1CCN(c2nnc(-c3cnc(NC4Cc5cc(F)c(F)cc5C4)nc3)o2)C1` (centres unmarked) [Example 26, 1-(5-(2-((5,6-difluoro-2,3-dihydro-1H-inden-2-yl)amino)pyrimidin-5-yl)-1,3,4-oxadiazol-2-yl)pyrrolidin-3-ol], 1%.
